Measurements reported in BindingDB's records for doi:10.1016/0960-894X(95)00361-V (Sphinx Pharmaceuticals, 1995).
pIC50: −log10 of the molar value.

Assays:
Assay in all cases: PKC assay
[1] = target: Protein kinase C eta type (Homo sapiens, UniProt P24723)
Protocol: (§1) The activity of PKC, activated by phosphatidylerine and Ca2+, is measured by its ability to transfer phosphate from [gamma-32P]ATP to lysine-rich histone.

[2] = target: Protein kinase C alpha type (Homo sapiens, UniProt P17252)
Protocol: as §1

[3] = target: T1, Protein kinase C epsilon type (Homo sapiens, UniProt Q02156)
T1 sequence (Q02156 whole entry): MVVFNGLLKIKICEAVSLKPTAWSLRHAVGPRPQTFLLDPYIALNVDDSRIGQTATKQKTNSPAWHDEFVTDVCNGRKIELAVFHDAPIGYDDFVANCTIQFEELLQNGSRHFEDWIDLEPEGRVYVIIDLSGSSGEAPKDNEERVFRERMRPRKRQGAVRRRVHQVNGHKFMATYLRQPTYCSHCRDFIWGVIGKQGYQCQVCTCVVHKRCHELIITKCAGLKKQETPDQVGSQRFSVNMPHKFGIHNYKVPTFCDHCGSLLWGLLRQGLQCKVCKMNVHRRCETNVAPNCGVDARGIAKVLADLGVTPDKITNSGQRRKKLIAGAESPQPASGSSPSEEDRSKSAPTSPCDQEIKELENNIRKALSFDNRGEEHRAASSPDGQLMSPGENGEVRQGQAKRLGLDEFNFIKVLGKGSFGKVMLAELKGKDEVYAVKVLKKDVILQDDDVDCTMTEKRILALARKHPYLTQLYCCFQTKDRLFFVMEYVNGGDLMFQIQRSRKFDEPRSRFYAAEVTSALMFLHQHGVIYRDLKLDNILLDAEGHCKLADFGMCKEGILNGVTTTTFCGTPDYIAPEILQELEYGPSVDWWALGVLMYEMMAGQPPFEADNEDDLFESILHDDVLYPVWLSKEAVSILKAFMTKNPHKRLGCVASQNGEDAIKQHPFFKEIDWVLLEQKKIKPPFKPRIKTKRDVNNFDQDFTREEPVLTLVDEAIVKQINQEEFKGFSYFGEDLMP
Protocol: as §1

[4] = target: Protein kinase C beta type (Homo sapiens, UniProt P05771)
Protocol: as §1

[5] = target: Protein kinase C delta type (Homo sapiens, UniProt Q05655)
Protocol: as §1

Sequence of Protein kinase C eta type (P24723 whole entry): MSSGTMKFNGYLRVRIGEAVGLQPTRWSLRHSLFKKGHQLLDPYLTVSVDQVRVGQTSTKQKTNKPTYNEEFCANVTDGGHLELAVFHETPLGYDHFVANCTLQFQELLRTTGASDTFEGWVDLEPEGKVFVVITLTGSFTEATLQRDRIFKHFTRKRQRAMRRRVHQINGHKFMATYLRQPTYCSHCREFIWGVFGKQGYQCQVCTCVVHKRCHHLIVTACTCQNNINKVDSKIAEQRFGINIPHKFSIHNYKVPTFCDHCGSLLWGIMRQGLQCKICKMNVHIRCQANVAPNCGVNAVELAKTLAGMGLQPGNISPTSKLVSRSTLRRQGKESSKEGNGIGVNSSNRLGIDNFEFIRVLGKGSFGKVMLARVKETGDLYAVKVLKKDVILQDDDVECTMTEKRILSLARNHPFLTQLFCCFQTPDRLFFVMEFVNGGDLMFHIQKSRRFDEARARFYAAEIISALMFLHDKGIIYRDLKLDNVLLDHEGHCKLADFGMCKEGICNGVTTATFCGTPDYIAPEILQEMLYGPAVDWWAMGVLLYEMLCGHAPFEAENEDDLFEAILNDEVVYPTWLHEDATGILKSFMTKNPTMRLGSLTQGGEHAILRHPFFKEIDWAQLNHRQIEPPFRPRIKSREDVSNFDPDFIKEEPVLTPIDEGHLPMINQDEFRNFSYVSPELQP
Sequence of Protein kinase C delta type (Q05655 whole entry): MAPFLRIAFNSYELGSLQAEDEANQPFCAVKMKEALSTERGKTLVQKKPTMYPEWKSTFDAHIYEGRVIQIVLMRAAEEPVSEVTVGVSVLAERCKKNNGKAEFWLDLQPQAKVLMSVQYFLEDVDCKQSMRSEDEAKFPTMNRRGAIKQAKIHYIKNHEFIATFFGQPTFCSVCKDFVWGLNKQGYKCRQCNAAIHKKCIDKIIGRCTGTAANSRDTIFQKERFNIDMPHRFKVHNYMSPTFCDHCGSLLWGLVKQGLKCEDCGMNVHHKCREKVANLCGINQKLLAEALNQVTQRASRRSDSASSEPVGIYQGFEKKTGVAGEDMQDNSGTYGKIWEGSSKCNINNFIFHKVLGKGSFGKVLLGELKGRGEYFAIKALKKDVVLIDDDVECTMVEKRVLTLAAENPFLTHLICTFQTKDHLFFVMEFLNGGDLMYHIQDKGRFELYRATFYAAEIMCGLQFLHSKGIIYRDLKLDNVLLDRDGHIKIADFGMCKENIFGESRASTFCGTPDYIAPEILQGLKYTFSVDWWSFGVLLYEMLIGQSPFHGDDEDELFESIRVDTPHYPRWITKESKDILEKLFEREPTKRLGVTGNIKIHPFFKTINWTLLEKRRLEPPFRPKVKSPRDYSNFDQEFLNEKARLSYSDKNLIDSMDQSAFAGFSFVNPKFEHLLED
Sequence of Protein kinase C beta type (P05771 whole entry): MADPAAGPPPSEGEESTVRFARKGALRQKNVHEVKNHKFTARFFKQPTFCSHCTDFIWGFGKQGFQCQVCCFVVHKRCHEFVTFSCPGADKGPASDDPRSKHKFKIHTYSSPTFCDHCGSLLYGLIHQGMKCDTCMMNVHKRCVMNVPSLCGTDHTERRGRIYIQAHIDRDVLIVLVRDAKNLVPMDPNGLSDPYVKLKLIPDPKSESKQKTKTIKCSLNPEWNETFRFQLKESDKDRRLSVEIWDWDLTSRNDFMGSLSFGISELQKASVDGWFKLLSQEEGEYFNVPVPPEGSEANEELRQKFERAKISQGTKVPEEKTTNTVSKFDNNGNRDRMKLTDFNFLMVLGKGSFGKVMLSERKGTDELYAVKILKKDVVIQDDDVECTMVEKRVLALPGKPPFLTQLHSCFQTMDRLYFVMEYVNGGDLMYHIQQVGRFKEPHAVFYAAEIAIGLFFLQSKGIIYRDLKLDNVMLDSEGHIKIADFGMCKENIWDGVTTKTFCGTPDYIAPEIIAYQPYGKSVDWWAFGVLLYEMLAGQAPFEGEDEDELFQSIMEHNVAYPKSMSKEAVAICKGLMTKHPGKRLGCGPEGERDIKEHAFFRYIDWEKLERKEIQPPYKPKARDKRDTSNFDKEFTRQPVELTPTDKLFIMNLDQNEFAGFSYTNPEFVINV

pIC50 [1] | pIC50 [2] | pIC50 [3] | pIC50 [4] | pIC50 [5] | Compound
6.40 | 5.38 | 4.70 | 5.74 | 6.60 | COC(=O)c1cccc(O)c1Oc1c(O)cc(C(=O)O[C@H]2CCC[C@@H]2NC(=O)c2ccc(O)cc2)cc1O [(1S,2S)-2-[(4-hydroxybenzene)amido]cyclopentyl 3,5-dihydroxy-4-[2-hydroxy-6-(methoxycarbonyl)phenoxy]benzoate]
8.40 | 6.68 | 6.52 | 7.40 | 8.30 | COC(=O)c1cccc(O)c1Oc1c(O)cc(C(=O)O[C@@H]2CCC[C@H]2NC(=O)c2ccc(O)cc2)cc1O [(1R,2R)-2-[(4-hydroxybenzene)amido]cyclopentyl 3,5-dihydroxy-4-[2-hydroxy-6-(methoxycarbonyl)phenoxy]benzoate]
